From ChEMBL document CHEMBL5465560, “Selectivity Literature for EUbOPEN Chemogenomic Library” (2024) come the findings set out here.

The target of assay [1] is T1, MAP/microtubule affinity-regulating kinase 4 (Homo sapiens) (UniProt Q96L34).
T1 sequence (whole entry): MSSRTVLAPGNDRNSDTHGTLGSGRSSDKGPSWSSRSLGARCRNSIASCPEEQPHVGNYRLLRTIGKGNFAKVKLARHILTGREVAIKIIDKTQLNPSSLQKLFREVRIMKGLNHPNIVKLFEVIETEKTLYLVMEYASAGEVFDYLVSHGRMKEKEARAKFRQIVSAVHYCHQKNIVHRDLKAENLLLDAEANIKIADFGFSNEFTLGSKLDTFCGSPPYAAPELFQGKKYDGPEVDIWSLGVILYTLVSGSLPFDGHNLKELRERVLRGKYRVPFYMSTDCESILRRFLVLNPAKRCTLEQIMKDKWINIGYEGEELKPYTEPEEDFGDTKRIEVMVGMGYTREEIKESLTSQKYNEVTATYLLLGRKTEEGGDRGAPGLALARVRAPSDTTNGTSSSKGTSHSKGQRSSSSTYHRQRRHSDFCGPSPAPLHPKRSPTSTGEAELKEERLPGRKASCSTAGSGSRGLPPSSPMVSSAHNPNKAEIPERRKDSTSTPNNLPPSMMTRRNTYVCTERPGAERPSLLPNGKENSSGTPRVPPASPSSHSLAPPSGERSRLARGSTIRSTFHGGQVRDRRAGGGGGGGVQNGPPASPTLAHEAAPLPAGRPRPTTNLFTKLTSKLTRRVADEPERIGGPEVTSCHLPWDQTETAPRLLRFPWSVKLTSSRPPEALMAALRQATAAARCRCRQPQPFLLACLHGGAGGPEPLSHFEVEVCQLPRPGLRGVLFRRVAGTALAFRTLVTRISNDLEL
The experiment in a line: Selectivity interaction (Ambit KINOMEscan and KiNATiv profiling in Jurkat cells) EUB0000090b MARK4. To be noted: at 1 µM. The format is cell-based.

For assay [2], the target named is T2, Membrane-associated tyrosine- and threonine-specific cdc2-inhibitory kinase (Homo sapiens) (UniProt Q99640).
T2 sequence (whole entry): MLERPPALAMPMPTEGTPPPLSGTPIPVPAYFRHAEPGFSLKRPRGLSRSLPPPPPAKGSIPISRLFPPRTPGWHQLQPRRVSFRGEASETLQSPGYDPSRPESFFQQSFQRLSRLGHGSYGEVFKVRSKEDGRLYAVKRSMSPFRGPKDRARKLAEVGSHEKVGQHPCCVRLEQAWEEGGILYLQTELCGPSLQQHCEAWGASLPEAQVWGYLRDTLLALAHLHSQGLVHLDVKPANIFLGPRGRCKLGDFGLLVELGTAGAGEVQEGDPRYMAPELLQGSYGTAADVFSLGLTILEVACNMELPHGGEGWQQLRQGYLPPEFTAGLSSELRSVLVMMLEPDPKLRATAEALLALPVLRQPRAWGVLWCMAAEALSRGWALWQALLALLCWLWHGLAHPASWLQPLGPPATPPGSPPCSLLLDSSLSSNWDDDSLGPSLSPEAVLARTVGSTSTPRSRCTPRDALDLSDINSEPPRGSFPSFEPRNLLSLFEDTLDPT
The experiment in a line: Selectivity interaction (KinomeScan (DiscoverX)) EUB0001619a PKMYT1. To be noted: at 1 µM.

For assay [3], the target named is Ribosomal protein S6 kinase beta-2 (Homo sapiens) (UniProt Q9UBS0). The experiment in a line: Selectivity interaction (ActivX KiNativ screen (ex vivo kinase selectivity in human PBMCs)) EUB0001619a RPS6KB2. Format: cell-based. To be noted: PBMC, at 1 µM.
In assay [4] the target is Ribosomal protein S6 kinase alpha-3 (Homo sapiens, UniProt P51812). The experiment in a line: Selectivity interaction (Kinase panel (Invitrogen)) EUB0000639a RPS6KA3. As to conditions: at 200 nM.
Assay [5] addresses T3, Ephrin type-A receptor 1 (Homo sapiens) (UniProt P21709).
T3 sequence (whole entry): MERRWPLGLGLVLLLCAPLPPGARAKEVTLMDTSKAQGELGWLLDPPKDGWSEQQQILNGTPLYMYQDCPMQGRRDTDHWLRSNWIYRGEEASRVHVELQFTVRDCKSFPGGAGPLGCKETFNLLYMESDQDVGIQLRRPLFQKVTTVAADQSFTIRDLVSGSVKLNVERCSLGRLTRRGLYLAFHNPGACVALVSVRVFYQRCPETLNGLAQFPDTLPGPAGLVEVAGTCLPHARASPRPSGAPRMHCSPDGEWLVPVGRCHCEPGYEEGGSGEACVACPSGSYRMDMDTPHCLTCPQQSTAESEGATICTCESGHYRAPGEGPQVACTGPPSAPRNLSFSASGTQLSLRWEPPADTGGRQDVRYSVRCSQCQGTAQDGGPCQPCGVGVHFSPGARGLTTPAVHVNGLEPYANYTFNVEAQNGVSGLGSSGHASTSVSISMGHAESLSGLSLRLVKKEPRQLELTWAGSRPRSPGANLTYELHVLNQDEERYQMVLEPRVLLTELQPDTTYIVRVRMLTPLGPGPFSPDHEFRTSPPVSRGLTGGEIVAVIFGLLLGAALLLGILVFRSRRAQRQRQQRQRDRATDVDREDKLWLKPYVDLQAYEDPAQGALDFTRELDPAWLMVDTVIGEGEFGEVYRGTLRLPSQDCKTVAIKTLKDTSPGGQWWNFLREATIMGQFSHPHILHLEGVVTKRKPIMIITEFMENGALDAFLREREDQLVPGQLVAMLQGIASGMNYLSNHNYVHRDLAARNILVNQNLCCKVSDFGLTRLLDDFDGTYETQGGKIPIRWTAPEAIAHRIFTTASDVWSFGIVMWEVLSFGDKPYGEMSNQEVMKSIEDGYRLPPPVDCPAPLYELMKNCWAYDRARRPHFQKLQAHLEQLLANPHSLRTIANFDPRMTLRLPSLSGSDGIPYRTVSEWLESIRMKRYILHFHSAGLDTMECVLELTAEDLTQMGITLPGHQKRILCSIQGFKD
The experiment in a line: Selectivity interaction (KinomeScan (DiscoverX)) EUB0000045b EPHA1.

Sequence of Ribosomal protein S6 kinase beta-2 (Homo sapiens) (Q9UBS0 whole entry): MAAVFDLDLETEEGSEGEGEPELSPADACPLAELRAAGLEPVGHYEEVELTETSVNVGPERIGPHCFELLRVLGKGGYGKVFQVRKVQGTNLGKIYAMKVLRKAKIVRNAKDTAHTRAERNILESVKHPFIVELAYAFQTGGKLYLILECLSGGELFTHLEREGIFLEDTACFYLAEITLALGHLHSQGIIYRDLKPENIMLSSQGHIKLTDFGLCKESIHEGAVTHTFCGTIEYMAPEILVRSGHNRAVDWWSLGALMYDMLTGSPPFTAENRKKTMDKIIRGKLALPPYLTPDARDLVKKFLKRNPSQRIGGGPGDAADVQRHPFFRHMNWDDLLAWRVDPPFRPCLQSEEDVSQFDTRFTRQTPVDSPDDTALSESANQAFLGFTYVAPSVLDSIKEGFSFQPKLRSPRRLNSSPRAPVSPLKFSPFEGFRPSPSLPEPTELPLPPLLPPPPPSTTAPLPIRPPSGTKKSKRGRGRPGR
Sequence of Ribosomal protein S6 kinase alpha-3 (P51812 whole entry): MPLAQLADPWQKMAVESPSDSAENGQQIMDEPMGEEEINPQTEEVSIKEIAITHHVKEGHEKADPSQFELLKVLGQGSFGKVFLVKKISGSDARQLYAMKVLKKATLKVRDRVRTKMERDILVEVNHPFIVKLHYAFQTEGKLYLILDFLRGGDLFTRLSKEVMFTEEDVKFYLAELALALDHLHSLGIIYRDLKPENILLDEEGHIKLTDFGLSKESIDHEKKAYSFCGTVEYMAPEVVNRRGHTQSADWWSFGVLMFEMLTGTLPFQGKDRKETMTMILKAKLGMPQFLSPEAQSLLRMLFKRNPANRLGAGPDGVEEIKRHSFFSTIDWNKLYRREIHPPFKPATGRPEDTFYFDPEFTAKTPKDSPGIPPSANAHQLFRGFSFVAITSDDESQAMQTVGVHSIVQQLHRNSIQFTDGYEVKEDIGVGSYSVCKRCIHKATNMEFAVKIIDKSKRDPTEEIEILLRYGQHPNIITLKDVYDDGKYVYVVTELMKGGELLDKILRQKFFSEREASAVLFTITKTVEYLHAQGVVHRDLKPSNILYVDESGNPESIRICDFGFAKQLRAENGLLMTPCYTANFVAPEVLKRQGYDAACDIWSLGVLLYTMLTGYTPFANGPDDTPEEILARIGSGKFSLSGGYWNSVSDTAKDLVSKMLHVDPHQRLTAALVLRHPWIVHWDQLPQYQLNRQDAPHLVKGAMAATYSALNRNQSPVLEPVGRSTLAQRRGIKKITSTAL

As to `CN(C)C/C=C/C(=O)Nc1ccc(C(=O)N2CCCC(Nc3ncc(Cl)c(-c4c[nH]c5ccccc45)n3)C2)cc1` (stereo unspecified), the % of control in assay [1] worked out at 100%.

Molecule `N#Cc1cccc(-c2c[nH]c3ncnc(N4CCOCC4)c23)c1` had a % of control in assay [2] of 73%. Moreover, the % of inhibition in assay [3] was -10%.

Consider `CC[C@@H]1[C@H](F)C(=O)N[C@@H]1COc1nccc2cc(C(N)=O)c(OC)cc12` [ZIMLOVISERTIB], for which the % of inhibition in assay [4] was -6.31%.

For the molecule `C=CC(=O)Nc1cc(-n2c(=O)ccc3cnc4ccc(-c5ccc(NS(C)(=O)=O)cc5)cc4c32)ccc1C`, the % of control in assay [5] (at 1 µM) is 92%; in assay [5] (at 10 µM), 100%.
